Assay results from ChEMBL document CHEMBL1201862, “PubChem BioAssay data set” (2004).
Calls of active or inactive are those of the source.

What was measured:
[1] = target: Peroxisome proliferator-activated receptor gamma/Nuclear receptor coactivator 1 (Homo sapiens, UniProt P37231); experiment: TR-FRET dose response biochemical High Throughput Screening assay for agonists of the steroid receptor coactivator 1 (SRC-1) recruitment by the peroxisome proliferator-activated receptor gamma (PPAR gamma): non-selective agonists. [Related pubchem assays (depositor defined):AID1300, AID1808, AID504735, AID631]; type: protein assay
Chain of Peroxisome proliferator-activated receptor gamma/Nuclear receptor coactivator 1 (P37231 whole entry): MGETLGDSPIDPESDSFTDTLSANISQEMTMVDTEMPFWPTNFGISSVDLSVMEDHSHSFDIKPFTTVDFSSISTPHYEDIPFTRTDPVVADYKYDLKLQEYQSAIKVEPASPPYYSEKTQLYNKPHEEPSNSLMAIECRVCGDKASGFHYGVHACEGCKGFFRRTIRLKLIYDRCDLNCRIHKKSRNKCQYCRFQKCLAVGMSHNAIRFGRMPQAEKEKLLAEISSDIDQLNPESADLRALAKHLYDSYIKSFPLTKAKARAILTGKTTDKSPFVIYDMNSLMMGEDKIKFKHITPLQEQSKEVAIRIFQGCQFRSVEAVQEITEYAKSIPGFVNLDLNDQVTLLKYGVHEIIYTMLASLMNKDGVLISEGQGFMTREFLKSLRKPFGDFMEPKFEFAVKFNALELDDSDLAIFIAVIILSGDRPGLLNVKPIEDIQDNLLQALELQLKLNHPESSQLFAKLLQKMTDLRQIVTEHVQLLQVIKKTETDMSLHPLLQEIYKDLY
Chain of Peroxisome proliferator-activated receptor gamma/Nuclear receptor coactivator 1 (Q15788 whole entry, further chain): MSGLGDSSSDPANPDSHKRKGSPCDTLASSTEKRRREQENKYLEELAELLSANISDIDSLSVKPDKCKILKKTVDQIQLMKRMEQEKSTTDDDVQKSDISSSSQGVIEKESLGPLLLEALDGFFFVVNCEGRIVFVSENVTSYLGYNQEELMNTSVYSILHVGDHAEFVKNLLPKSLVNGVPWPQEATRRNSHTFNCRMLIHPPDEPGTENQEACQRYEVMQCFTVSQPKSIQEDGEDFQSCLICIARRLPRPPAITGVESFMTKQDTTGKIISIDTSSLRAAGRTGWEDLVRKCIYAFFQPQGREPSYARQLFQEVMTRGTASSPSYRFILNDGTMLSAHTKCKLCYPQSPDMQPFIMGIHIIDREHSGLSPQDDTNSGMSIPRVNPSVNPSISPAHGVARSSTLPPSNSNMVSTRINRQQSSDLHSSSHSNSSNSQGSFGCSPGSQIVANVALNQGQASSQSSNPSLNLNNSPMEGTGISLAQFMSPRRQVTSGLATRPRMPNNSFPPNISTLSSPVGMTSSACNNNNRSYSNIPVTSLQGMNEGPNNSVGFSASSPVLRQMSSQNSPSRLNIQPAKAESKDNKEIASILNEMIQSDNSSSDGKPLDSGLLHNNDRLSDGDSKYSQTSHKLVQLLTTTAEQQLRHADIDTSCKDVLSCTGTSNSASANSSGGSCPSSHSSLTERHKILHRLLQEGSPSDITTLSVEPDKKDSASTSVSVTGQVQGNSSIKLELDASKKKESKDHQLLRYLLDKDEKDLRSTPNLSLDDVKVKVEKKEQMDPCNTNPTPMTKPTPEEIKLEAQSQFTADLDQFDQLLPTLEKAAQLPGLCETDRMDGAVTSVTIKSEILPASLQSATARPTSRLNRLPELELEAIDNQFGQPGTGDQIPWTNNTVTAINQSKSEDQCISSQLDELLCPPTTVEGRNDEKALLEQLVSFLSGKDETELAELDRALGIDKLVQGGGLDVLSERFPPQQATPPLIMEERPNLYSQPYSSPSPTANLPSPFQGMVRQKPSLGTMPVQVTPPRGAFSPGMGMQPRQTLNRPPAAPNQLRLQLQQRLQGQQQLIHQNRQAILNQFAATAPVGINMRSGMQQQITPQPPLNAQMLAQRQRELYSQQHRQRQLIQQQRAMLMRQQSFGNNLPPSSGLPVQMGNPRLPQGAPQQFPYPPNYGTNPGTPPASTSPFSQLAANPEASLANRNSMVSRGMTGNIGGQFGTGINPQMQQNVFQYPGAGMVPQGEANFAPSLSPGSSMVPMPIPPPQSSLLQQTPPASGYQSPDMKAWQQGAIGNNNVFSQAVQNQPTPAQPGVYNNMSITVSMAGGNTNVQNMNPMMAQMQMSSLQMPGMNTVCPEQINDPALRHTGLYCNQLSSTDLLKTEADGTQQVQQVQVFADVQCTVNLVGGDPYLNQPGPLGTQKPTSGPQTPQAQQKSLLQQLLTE

[2] = target: Peroxisome proliferator-activated receptor gamma/Nuclear receptor coactivator 3 (Homo sapiens, UniProt P37231); experiment: TR-FRET dose response biochemical High Throughput Screening assay for agonists of the steroid receptor coactivator 3 (SRC-3) recruitment by the peroxisome proliferator-activated receptor gamma (PPAR gamma): non-selective agonists. [Related pubchem assays: 1301 (Confirmation screen.), 1048 (Primary screen.)]; type: functional
Chain of Peroxisome proliferator-activated receptor gamma/Nuclear receptor coactivator 3 (P37231 whole entry): as the sequence (P37231 whole entry) above
Chain of Peroxisome proliferator-activated receptor gamma/Nuclear receptor coactivator 3 (Q9Y6Q9 whole entry, further chain): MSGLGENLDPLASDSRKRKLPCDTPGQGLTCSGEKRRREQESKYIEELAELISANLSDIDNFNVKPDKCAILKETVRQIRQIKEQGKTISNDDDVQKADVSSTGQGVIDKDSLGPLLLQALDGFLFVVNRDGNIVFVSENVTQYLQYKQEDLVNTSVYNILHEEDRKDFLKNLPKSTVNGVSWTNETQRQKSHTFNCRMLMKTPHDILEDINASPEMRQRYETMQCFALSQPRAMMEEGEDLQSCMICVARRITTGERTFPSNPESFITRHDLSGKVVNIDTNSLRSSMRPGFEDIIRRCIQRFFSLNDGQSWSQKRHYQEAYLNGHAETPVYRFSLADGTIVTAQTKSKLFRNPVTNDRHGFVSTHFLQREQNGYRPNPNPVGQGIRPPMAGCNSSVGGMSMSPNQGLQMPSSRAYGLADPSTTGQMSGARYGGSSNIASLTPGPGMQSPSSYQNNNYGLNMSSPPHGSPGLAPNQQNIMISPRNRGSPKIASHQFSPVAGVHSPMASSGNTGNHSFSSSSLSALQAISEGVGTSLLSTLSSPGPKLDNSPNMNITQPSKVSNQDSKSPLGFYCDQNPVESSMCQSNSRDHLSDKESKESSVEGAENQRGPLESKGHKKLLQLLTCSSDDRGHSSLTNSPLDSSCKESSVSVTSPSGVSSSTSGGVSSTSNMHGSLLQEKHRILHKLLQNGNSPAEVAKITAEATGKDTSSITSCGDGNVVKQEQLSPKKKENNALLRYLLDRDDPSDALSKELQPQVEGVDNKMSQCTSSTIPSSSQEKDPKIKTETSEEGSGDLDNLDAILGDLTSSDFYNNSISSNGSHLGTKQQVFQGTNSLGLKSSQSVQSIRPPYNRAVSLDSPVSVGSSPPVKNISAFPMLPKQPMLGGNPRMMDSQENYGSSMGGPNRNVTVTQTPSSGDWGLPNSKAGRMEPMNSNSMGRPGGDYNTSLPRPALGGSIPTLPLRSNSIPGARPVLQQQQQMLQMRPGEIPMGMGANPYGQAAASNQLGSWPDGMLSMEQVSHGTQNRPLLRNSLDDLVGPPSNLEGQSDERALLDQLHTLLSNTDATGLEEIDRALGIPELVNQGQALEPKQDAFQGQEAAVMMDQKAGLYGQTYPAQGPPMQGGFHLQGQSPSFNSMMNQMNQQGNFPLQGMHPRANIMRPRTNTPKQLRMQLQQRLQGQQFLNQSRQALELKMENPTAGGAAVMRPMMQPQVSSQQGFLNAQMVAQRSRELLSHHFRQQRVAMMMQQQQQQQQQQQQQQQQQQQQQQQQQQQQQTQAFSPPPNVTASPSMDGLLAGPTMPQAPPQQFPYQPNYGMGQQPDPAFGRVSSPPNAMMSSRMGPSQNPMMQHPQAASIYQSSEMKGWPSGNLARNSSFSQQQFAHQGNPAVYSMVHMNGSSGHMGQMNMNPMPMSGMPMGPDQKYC

[3] = system: Streptococcus sp. 'group A'; experiment: Streptococcus pyogenes SK(-)GAS viability under kanamycin – luminescence, BacTiterGlo, confirmation, counter-screen for streptokinase expression inhibitor project, dose response (AID 1900); type: functional, organism-based
[4] = target: Peroxisome proliferator-activated receptor gamma/Nuclear receptor coactivator 2 (Homo sapiens, UniProt P37231); experiment: TR-FRET dose response biochemical High Throughput Screening assay for agonists of the steroid receptor coactivator 2 (SRC-2) recruitment by the peroxisome proliferator-activated receptor gamma (PPAR gamma): non-selective agonists. [Related pubchem assays: 1297, 1032 ]; type: functional
Streptokinase A = target: T1, Streptokinase A (Streptococcus pyogenes serotype M1, UniProt P10520); experiment: viability-normalized secreted streptokinase activity reduction – plasminogen activation absorbance, OD405, dose response (AID 1914); type: functional, Streptococcus pyogenes M1 GAS;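 note: secreted streptokinase activity via plasminogen activation per viability signal from cell pellet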
T1 sequence (P10520 whole entry): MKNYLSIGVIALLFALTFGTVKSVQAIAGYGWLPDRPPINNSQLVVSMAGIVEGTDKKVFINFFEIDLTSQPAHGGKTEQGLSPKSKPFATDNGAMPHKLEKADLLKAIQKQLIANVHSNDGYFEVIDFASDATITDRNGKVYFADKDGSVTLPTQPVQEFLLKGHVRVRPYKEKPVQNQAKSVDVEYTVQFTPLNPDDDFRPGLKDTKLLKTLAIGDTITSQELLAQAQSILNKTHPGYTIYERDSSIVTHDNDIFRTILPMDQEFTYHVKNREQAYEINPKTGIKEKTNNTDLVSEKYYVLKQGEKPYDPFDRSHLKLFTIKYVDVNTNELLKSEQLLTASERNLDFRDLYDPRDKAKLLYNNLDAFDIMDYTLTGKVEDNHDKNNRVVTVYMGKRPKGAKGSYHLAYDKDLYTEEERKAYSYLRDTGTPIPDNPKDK

Streptococcus = experiment: GAS UMAA2166 growth inhibition – luminescence, BacTiterGlo, counter-screen for streptokinase expression inhibitor project, dose response (AID 1915); type: functional, organism-based;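 note: potency for reduction of bacterial viability or growth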
BJ [5] = experiment: BJ-TERT-LT-ST fibroblast viability loss – cell-based, RAS-independent, luminescence, dose response (AID 1935); type: functional; details: Homo sapiens;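 note: BJ fibroblasts immortalized with TERT plus LT and ST oncogenes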
HEK293 [6] = experiment: cells; type: functional, cell-based; details: Homo sapiens
HEK293 [7] = experiment: cells; type: functional, cell-based; details: Homo sapiens; remark: listed apart in the source
Nonstructural protein 1 = Nonstructural protein 1 (Influenza A virus, UniProt Q194T2); type: functional, Influenza A virus (A/California/07/2009(H1N1))
HEK293 [8] = experiment: cells; type: functional, cell-based; details: Homo sapiens; remark: listed apart in the source
HEK293 [9] = experiment: inhibition of NOD1-driven NF-kB reporter – cell-based, luminescence, uHTS, primary screen (AID 1578); type: functional; details: Homo sapiens
BJ [10] = experiment: BJ-TERT fibroblast viability loss – cell-based, RAS-independent, luminescence, dose response (AID 1933); type: functional; details: Homo sapiens
[11] = DRD fibroblast viability loss – cell-based, non-viral oncogenic, luminescence, dose response (AID 1934); type: functional; details: Homo sapiens
BJ [12] = experiment: cells; type: functional, cell-based; details: Homo sapiens
HEK293 [13] = experiment: NOD2 signaling inhibitors in MDP-stimulated cells, cell-based, uHTS, luminescence (AID 2001); type: functional; details: Homo sapiens
[14] = target: Nucleotide-binding oligomerization domain-containing protein 2 (Homo sapiens, UniProt Q9HC29); experiment: inhibition of NOD2-driven NF-kB reporter – cell-based, luminescence, uHTS, HEK293 (AID 1566); type: functional
[15] = target: G-protein coupled receptor 55 (Homo sapiens, UniProt Q9Y2T6); experiment: selective activators of receptor GPR55 – imaging, U2OS cells, beta-arrestin-GFP redistribution, primary screen (AID 1961); type: functional
Estrogen receptor = target: T2, Estrogen receptor (Homo sapiens, UniProt P03372);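 note: potency for inhibiting coactivator peptide recruitment to the receptor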
T2 sequence (P03372 whole entry): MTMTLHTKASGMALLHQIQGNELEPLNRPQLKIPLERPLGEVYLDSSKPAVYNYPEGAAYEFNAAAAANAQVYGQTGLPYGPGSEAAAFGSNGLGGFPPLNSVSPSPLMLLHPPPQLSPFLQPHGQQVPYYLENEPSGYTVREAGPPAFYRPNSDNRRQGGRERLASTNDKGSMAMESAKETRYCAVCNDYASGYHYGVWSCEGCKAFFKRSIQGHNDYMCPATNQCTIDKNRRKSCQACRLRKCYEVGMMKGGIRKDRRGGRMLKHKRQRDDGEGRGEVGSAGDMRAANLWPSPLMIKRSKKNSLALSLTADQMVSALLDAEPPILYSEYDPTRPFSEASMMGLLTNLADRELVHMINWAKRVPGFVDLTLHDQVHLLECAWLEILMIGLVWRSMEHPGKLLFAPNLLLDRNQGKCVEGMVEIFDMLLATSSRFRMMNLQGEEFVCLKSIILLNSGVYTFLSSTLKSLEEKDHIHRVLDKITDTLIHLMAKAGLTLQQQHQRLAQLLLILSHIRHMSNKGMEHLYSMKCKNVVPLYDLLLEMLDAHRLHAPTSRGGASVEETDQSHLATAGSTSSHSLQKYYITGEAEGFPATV

[16] = viability loss of HPDE-C7K cells – cell-based, fluorescence, HTS, primary screen (AID 431); type: functional; details: Homo sapiens
[17] = HPDE-C7 pancreatic duct cell viability loss – fluorescence, HTS (AID 430); type: functional, cell-based; details: Homo sapiens
Cytochrome P450 2D6 = Cytochrome P450 2D6 (Homo sapiens, UniProt P10635);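 note: CYP2D6 member of a cytochrome P450 panel assay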
[18] = target: Delta-type opioid receptor (Homo sapiens, UniProt P41143); experiment: Counterscreen for agonists of heterodimerization of the mu 1 (OPRM1) and delta 1 (OPRD1) opioid receptors: Luminescence-based cell-based high throughput dose response assay to identify agonists of OPRD1 homodimerization. [Related pubchem assays (depositor defined):AID504326, AID504355, AID504692, AID504904, AID504905]; type: functional
Chain of Delta-type opioid receptor (P41143 whole entry): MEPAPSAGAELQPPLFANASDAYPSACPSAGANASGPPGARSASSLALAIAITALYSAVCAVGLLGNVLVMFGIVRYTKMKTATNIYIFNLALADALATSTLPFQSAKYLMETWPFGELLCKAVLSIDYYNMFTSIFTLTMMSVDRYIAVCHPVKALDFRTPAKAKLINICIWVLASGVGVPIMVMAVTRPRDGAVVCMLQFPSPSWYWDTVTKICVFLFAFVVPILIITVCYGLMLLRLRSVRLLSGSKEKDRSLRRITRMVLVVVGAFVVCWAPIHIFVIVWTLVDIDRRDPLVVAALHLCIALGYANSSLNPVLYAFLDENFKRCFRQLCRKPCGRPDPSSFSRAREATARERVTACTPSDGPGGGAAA

Mu-type opioid receptor = Mu-type opioid receptor (Homo sapiens, UniProt P35372); experiment: Counterscreen for agonists of heterodimerization of the mu 1 (OPRM1) and delta 1 (OPRD1) opioid receptors: Luminescence-based cell-based high throughput dose response assay to identify agonists of OPRM1 homodimerization.; type: functional;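 note: U2OS cells expressing OPRM1 and beta-arrestin as split beta-galactosidase partners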
[19] = target: 5-hydroxytryptamine receptor 5A (Homo sapiens, UniProt P47898); experiment: Counterscreen for agonists of OPRM1-OPRD1 heterodimerization: luminescence-based cell-based high throughput dose response assay to identify agonists of 5-hydroxytryptamine (serotonin) 5A receptor (HTR5A). [Related pubchem assays (depositor defined):AID504326, AID504355, AID504692, AID504904, AID504905]; type: functional
Cytochrome P450 2C9 = Cytochrome P450 2C9 (Homo sapiens, UniProt P11712)
[20] = target: T3, Short transient receptor potential channel 4 (Mus musculus, UniProt Q9QUQ5); experiment: calcium entry via TRPC4 opening agents – cell-based, HEK293 TRPC4/mu-opioid, Fluo-4 calcium, dose response (AID 434937); type: functional
T3 sequence (Q9QUQ5 whole entry): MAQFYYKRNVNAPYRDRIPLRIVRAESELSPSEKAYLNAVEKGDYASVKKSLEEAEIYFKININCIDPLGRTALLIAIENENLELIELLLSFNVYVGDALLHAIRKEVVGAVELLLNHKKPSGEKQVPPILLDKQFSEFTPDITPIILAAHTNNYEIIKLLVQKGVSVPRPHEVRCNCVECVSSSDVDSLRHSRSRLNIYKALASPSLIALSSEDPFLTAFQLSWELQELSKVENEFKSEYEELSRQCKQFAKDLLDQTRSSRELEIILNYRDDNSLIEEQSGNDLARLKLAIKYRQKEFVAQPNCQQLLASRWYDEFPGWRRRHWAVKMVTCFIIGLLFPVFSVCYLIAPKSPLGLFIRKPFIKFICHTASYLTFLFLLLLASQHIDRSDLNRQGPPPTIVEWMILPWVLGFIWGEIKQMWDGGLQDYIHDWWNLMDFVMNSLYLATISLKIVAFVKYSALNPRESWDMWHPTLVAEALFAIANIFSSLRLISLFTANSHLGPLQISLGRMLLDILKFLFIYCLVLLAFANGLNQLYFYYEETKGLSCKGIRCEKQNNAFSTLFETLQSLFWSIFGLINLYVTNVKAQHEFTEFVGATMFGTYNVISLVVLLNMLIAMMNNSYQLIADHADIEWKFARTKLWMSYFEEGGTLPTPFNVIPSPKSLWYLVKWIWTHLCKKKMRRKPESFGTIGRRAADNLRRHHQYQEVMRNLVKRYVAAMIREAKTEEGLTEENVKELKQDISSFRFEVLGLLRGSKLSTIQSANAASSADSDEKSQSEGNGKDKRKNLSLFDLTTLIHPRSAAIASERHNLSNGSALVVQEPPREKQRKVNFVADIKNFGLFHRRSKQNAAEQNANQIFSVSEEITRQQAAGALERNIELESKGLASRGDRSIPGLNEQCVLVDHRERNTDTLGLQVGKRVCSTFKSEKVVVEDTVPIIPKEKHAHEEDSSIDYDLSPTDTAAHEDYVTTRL

Cytochrome P450 2C19 = Cytochrome P450 2C19 (Homo sapiens, UniProt P33261); experiment: Cytochrome panel assay with activity outcomes. Panel member name: p450-cyp2c19 Compounds with AC50 equal or less than 10 uM are considered active; type: functional; details: read-out: AC50
[21] = target: T4, Polyadenylate-binding protein 1 (Homo sapiens, UniProt P11940); experiment: MLLE domain peptide-binding blockers, IC50 – biochemical, fluorescence polarization, FITC-PAM2 peptide, dose response (AID 602259); type: functional; details: read-out: IC50_Mean
T4 sequence (P11940 whole entry, the tested form may be a part): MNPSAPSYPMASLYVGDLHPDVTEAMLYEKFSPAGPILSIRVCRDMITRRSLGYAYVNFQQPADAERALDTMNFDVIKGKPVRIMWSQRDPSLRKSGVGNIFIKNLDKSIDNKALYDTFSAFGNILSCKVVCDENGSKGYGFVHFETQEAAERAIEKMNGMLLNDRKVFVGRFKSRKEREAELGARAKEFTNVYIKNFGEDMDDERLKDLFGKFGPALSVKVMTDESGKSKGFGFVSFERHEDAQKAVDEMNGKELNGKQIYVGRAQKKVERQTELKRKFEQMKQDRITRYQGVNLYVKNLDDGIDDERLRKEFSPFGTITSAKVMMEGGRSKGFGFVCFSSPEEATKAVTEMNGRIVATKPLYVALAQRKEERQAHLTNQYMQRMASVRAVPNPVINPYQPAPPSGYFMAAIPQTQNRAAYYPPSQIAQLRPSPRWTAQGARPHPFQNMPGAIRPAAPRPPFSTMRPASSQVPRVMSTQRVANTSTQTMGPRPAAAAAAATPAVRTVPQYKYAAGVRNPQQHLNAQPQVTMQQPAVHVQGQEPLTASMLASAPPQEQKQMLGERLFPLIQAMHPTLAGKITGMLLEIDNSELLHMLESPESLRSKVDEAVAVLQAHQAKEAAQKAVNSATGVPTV

[22] = target: T4, Polyadenylate-binding protein 1; experiment: MLLE binding blockers, Cy5 peptide tracer – biochemical, fluorescence polarization, Cy5-PAM2 peptide, secondary, miRNA deadenylation inhibitor project, dose response (AID 602260); type: functional; details: read-out: IC50_Mean
Phospholipase A2 = Phospholipase A2 (Homo sapiens, UniProt P04054); type: functional;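 note: confirmatory dose-response counterscreen on phospholipase A2, testing hits that came from an ultra-high-throughput screen for ATG4B inhibitors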
Chain of Phospholipase A2 (P04054 whole entry): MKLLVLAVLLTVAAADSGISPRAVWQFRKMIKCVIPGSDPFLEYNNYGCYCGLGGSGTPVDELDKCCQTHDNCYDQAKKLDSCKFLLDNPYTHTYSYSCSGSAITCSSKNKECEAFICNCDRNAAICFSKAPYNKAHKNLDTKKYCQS

Cysteine protease ATG4B = target: T5, Cysteine protease ATG4B (Homo sapiens, UniProt Q9Y4P1); type: functional;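 note: Fluorescence-based dose-response confirmation assay measuring inhibition of ATG4B activity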
T5 sequence (Q9Y4P1 whole entry): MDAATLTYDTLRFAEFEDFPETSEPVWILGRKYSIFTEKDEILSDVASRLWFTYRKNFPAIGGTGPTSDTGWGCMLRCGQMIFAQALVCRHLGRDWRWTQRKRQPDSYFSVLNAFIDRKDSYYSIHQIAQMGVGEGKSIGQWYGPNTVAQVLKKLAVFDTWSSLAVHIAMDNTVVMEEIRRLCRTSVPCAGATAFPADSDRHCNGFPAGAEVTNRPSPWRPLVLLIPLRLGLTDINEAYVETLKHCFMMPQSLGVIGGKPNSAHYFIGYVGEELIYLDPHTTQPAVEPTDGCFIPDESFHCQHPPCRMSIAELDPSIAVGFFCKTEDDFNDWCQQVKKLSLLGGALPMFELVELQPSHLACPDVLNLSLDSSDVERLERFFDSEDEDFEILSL

## CSc1ccccc1-c1nnc(S)o1
[1]
  EC50: 22.3 µM (inactive)
[2]
  EC50: > 79.4 µM (not active)
[3]
  EC50: > 150 µM (not active)
[4]
  EC50: 4.77 µM (active)
Streptokinase A
  EC50: > 150 µM (not active)
Streptococcus
  EC50: > 150 µM (not active)

## C/C(=N\NC(=O)c1ccccc1F)c1ccccn1
BJ [5]
  EC50: 10.9 µM (active)
HEK293 [6]
  IC50: > 20 µM (inactive)
HEK293 [7]
  IC50: 9.17 µM (active)
Nonstructural protein 1
  IC50: 5.72 µM (active)
HEK293 [8]
  IC50: > 20 µM (inactive)
HEK293 [9]
  EC50: 18 µM (active)
BJ [10]
  EC50: 12 µM (inconclusive)
[11]
  EC50: 2.9 µM (active)
BJ [12]
  EC50: 4.68 µM (inconclusive)
HEK293 [13]
  IC50: 3.76 µM (inactive)
[14]
  EC50: > 20 µM (inactive)

## Cc1ccc(-c2nn3c(C)nnc3s2)cc1NC(=O)c1ccc(-c2cccc(Cl)c2)o1
[15]
  EC50: 17.7 µM (inactive)
Estrogen receptor
  IC50: > 50 µM (not active)
[16]
  EC50: 17.7 µM (active)
[17]
  EC50: 15.4 µM (active)

## CN(C)C(CNC(=O)NC1CCCCC1)c1cccnc1 (stereo unspecified)
Cytochrome P450 2D6
  AC50: 31.6 µM (inconclusive)
[18]
  EC50: > 92.5 µM (inactive)
Mu-type opioid receptor
  EC50: > 92.5 µM (inactive)
[19]
  EC50: > 92.5 µM (inactive)
Cytochrome P450 2C9
  AC50: 0.398 µM (inconclusive)
[20]
  EC50: 0.06 µM (active)
Cytochrome P450 2C19
  AC50: 25.1 µM (inconclusive)

## CCOC(=O)c1sc(=S)n(-c2ccccc2Cl)c1SC
[1]
  EC50: 10.7 µM (inactive)
[2]
  EC50: > 79.4 µM (not active)
[21]
  IC50: > 66 µM (inactive)
[22]
  IC50: > 66 µM (inactive)
[4]
  EC50: 12.5 µM (not active)

## CCc1c(C)nc2ccc(Br)cc2c1SCCC#N
HEK293 [6]
  IC50: > 20 µM (inactive)
HEK293 [7]
  IC50: 1.29 µM (active)
HEK293 [8]
  IC50: > 20 µM (inactive)
HEK293 [9]
  EC50: 3.05 µM (active)
HEK293 [13]
  IC50: 1.74 µM (active)
[14]
  EC50: 3.84 µM (active)

## O=C(c1ccc(-n2c(SCc3cc(F)ccc3F)nc3ccccc3c2=O)cc1)N1CCOCC1
Phospholipase A2
  IC50: 11.7 µM (active)
Cysteine protease ATG4B
  IC50: 8.7 µM (active)

## Cc1ccc2nc(NC(=O)CSc3ncnc4c3oc3ccccc34)sc2c1
[1]
  EC50: > 79.4 µM (inactive)
[2]
  EC50: > 79.4 µM (not active)
[4]
  EC50: > 79.4 µM (not active)

## O=C(O)c1ccc(C[n+]2c(-c3ccccc3)csc2Nc2ccccc2)cc1
Phospholipase A2
  IC50: > 80 µM (inactive)
Cysteine protease ATG4B
  IC50: 15.1 µM (active)
